According to patent US20240002424A1, “HEXOSAMINE COMPOUNDS AND METHODS THEREOF” (National Institute of Immunology, priority 2021, published 2024):

Experiments:
Format in all cases: cell-based, human
[1] = tested on: HL-60 cells; experiment: NeuAz expression by SPAAC with DBCO-Cy5 and flow cytometry, competition with 1c; settings: 50 μM with 1c 50 μM, 24 h
Experimental: Estimation of NeuAz expression by 1c in the presence of peracetylated ManNAc analogues: Jurkat cells (3.0×10^5 cells/mL in 3.0 mL per well in 6-well plates) were incubated with (i) D, (ii) 1a, 1b, 1c, or 1d alone (50 mM) or (iii) 1a, 1b, or 1d (50 mM) in combination with 1c (50 mM). After 24 h, cells were harvested, washed using FSB, aliquoted to 5.0×10^5 cells per sample, and processed as mentioned above for estimation of NeuAz expression using DBCO-Cy5 ([…]). Experiments using HL-60 cells were performed using the same procedure.
Having confirmed metabolic acceptability in Jurkat cells, the compounds were tested on HL-60 (human acute myeloid leukemia) cells which are a reliable model for neutrophil adhesion. The effect on competitive suppression of NeuAz expression was studied using 1c as a reporter. HL-60 cells were treated with 1c either alone (50 μM) or in combination with ManNAc analogues (50 μM), including the straight chain derivatives, for 24 h followed by DBCO-Cy5 ligation. […] The decreasing ability of linear alkyl moieties (1d-1g), as a function of chain length, for suppression of NeuAz expression is in contrast to the cycloalkyl moieties. […] Similarly, 1a induced a reduction of 40% compared to only a 15% reduction by 1f.

[2] = tested on: HL-60 cells; experiment: Total and glycoside bound sialic acids by periodate-resorcinol assay; settings: 100 μM, 48 h
Experimental: Total sialic acids were measured following reported procedures. HL-60 cells (3.0×10^5 cells/mL in 10 mL complete medium in 10 cm diameter Petri dishes) were incubated with D, 1a, 1b, 1c, 1d, 1e, 1f, 1g, 2a, or 2b (100 mM each), along with untreated (U) controls. After 48 h, cells were harvested, washed with PBS (3×5.0 mL; 3000×g, for 2.0 min), aliquoted to 2×10^6 cells per sample and resuspended in PBS (150 mL) in 1.5 mL microcentrifuge tubes. Cells were lyzed by three freeze-thaw cycles and the total lysates were subjected to periodate-resorcinol assay. Briefly, lysates (150 mL) were treated with 0.4 M aqueous periodic acid (6.67 mM) or (2.5 mL) and incubated either on ice for 15 min (for measurement of total sialic acids) or at 37° C. for 1.0 h (for measurement of glycoconjugate bound sialic acids). About 10 mL of reagent cocktail was prepared using 6% w/v of aqueous resorcinol (1.0 mL), 2.5 mM copper (II) sulfate (1.0 mL), 44% of concentrated hydrochloric acid (4.4 mL), and water (3.6 mL). The mixture was then treated with the reagent cocktail (250 mL per sample), boiled at 100° C. for 10 min, rapidly quenched in an ice-bath and treated with tert-butanol (250 mL). The contents were centrifuged and the supernatants were aliquoted (200 mL) into 96-well plates and the absorbance at 630 nm was measured. At least three replicates were prepared for each condition.

[3] = tested on: HL-60 cells; experiment: Binding of mouse E-selectin-Fc chimera (mCD62E) to cells by flow cytometry; settings: 50 μM, 72 h
Experimental: Effect of HexNAc analogues on the expression of E-selectin ligands: HL-60 cells (3.0×10^5 cells/mL in 2.5 mL complete medium in 6-well plates) were incubated with D, 1a, 1b, or 1d (50 mM), along with untreated controls. After 72 h, cells were harvested and washed with PBS (3×0.5 mL). Prior to the last wash, cells were counted and aliquoted into 5.0×10^5 cells per sample. Cells were stained with mCD62E-Fc chimera protein (10 mg/mL) in PBS (50 mL) at 4° C. After 1.0 h, cells were washed with PBS (2×0.5 mL) and stained with PEconjugated F(ab′)2 goat anti-human Fc in PBS (50 mL) at 4° C. After 1.0 h, cells were washed with PBS (2×0.5 mL) and resuspended in 0.85% saline (0.2 mL) containing Sytox Red (dilution 1:1000; stock concentration of 5.0 mM). Additionally, control samples of cells treated with only the secondary antibody were prepared. Two replicate samples were analyzed for each condition and each sample was counted twice by flow cytometry as mentioned above.

SMILES | NeuAz expression with respect to 1c alone (100%) [1] [%] | reduction of NeuAz expression with respect to controls [1] [%] | decrease in glycoside bound sialic acid levels [2] [%] | ratio of total sialic acids to glycoside bound sialic acids vs untreated cells [2] | change in mCD62E binding with respect to untreated cells (in words) [3] | increase in mCD62E (E-selectin-Fc) binding with respect to untreated cells [3] [fold] | suppression of NeuAz expression (in words) [1] | increase in glycoside bound sialic acid levels [2] [%] | increase in total sialic acid levels vs untreated cells [2] [fold]
CC(=O)OC[C@H]1O[C@H](OC(C)=O)[C@@H](NC(=O)C2CC2)[C@@H](OC(C)=O)[C@@H]1OC(C)=O [Compound 1a, 1,3,4,6-tetra-O-acetyl-2-cyclopropanoylamino-2-deoxy-α-D-mannopyranose] | 60 | 40 | ~10 | higher ratios of free sialic acid | no significant change | – | – | – | –
CC(=O)OC[C@H]1OC(OC(C)=O)[C@@H](NC(=O)C2CCC2)[C@@H](OC(C)=O)[C@@H]1OC(C)=O (stereo partly drawn) [Compound 1b, (3S,4R,5S,6R)-6-(acetoxymethyl)-3-(cyclobutanecarboxamido)tetrahydro-2H-pyran-2,4,5-triyl triacetate] | 55 | 45 | ~10 | higher ratios of free sialic acid | – | 2.3 | – | – | –
CC(=O)NC1C(OC(C)=O)OC(COC(C)=O)[C@@H](OC(C)=O)[C@@H]1OC(C)=O (stereo partly drawn) [Compound 1d, 1,3,4,6-tetra-O-acetyl-2-acetylamino-2-deoxy-α/β-D-mannopyranose] | 40 | – | – | higher ratios of free sialic acid | no significant change | – | Maximum suppression | ~10 | 2.0
